In patent US20130288292A1, “SURFACE-TENSION BASED FLOW GUIDANCE IN A MICROSTRUCTURE ENVIRONMENT” (priority 2011, published 2013):

Test system: PC3-M cells
Experiment: Immunocytochemistry staining of Ki67 in PC3-M cells embedded in 3D Matrigel
Assay type: cell-based
Conditions: 20 μM Cycloheximide in growth media; PC3-M cells in 3D Matrigel (90%), Iuvo Slide 3D ICC platform
Procedure: FIGS. 11 A-C show immunocytochemistry staining of PC3-M Cells embedded in 3D matrix. PC3-M cells were embedded in 3D Matrigel™ (90%) on the Iuvo™ Slide—3D ICC platform (Figure A.). Once the matrix gelled, growth media (with and without 20 μM Cycloheximide) was added to the side compartments of the channel. Following incubation, the cells in the matrix were fixed by flowing reagents through the side channels and allowing sufficient time for diffusion into the gel. A standard immunocytochemistry protocol (4% formaldehyde fixative, 0.5% TX-100 permeabilization buffer, 10% goat serum blocking buffer, primary antibody for Ki67 from LabVision, and AlexaFluor®594 secondary antibody) was utilized. […] FIG. 11 C. is a graph showing the quantitative analysis of the immunocytochemistry staining of PC3-M Cells embedded in a 3D Matrix.
Another embodiment of the invention provides a device that enables the use of assay methods requiring multiple liquid replacement, or wash steps that require the diffusion of large biomolecules, in matrices that are very dense, such as Matrigel™. For example, it is becoming increasingly clear that the lack of a native three dimensional tissue microenvironment seriously limits the utility and accuracy of cellular assays, many of which rely on immunocytochemistry as an endpoint. […]

SMILES: C[C@@H]1C[C@@H]([C@H](O)CC2CC(=O)NC(=O)C2)C(=O)[C@@H](C)C1 [Cycloheximide]
- proliferation marker Ki67 (immunocytochemistry staining): loss of proliferation marker
